Laboratory results from patent JP2006083192A, “サイトカイン異常産生又は接着作用の亢進に伴う疾患を予防又は治療するための薬剤” (Otsuka Pharmaceutical Co Ltd, priority 1996, dated 1998).

Assays:
Type in all cases: cell-based
IL-6 production (IL−6産生) = assay: 薬理試験5 IL−6産生抑制作用 (inhibition of IL-6 production, human whole blood); conditions: same method as pharmacological test 3 (human whole blood, LPS, 37℃, 24 h)
[1] = test system: IFN-γ production (IFN−γ産生); assay: 薬理試験6 IFN−γ産生抑制作用 (inhibition of IFN-γ production, human whole blood); conditions: concanavalin A (ConA), 37℃, 48 h, ELISA
IL-1 production (IL−1産生) = assay: 薬理試験4 IL−1産生抑制作用 (inhibition of IL-1 production, human whole blood); conditions: same method as pharmacological test 3 (human whole blood, LPS, 37℃, 24 h)

Question: What does the source list for `CCOc1ccc(-c2nc(-c3cccc(C(=O)O)n3)cs2)cc1OCC` [実施例2]?
Answer: IC50 (IL-6 production (IL−6産生)): ≥ 100 µM; IC50 [1]: 5 µM; IC50 (IL-1 production (IL−1産生)): 80 µM
